In experiment [1] the test system is iron uptake genes isdB, sfaA, sbnC, MW0695 in MRSA-1707 biofilms. The note with it: 5 μM; previous work ref 39; cited from earlier work.
For experiment [2], the system named is VRE 700221 (E. faecium ATCC 700221). As to the kind of experiment: MIC broth microdilution, VRE 700221. The note with it: 16 h. For orientation: Dilution methods test growth across graded concentrations, often in twofold steps.
The test system of experiment [3] is MRSE 35984 biofilms. As to the kind of experiment: Calgary biofilm device. The note with it: Staphylococcus epidermidis, read-out: MRSE 35984 MBC.
The subject of experiment [4] is six MRSA clinical isolates. Put plainly: MIC assays against MRSA clinical isolates. It is filed as cell-based. As to conditions: Staphylococcus aureus, read-out: MIC against six MRSA clinical isolates.
For experiment [5], the system named is M. tuberculosis H37Ra (ATCC 25177). Put plainly: MIC assay for Mtb H37Ra. As to conditions: Mycobacterium tuberculosis, ATCC25177|H37RA, 168 h, read-out: MIC Mtb H37Ra. It is filed as cell-based.
Experiment [6] concerns J774 macrophages. Put plainly: Alamar Blue cytotoxicity, J774 macrophages. It is filed as cell-based. The note with it: IC50 J774 MΦ and HepG2 vs MIC against MRSA, MRSE, VRE strains. For orientation: The colour change of resazurin is a common sign of viable cells or microbes.
In experiment [7] the test system is MRSA, MRSE, and VRE strains. As to the kind of experiment: MIC summarised across several Gram-positive strains.
The subject of experiment [8] is iron uptake genes isdB, sfaA, sbnC, MW0695 in MRSA-1707 biofilms. Put plainly: RT-qPCR of iron uptake genes in MRSA biofilms. The note with it: established biofilms, 4 h, 1 μM or 1/10 × MBEC. For orientation: In qPCR the cycle at which signal appears reflects the starting amount.

SMILES strings stand for the structures. Converted amounts (≈) assume the structure as drawn. “Also recorded” adds a separate entry of the source.

Regarding `O=C(O)CN(CCN(CC(=O)O)CC(=O)O)CC(=O)O` [EDTA, ethylenediaminetetraacetic acid], in experiment [1], the “upregulation of iron uptake genes” value is given as “do not upregulate”. For the compound `CN[C@H](CC(C)C)C(=O)N[C@H]1C(=O)N[C@@H](CC(N)=O)C(=O)N[C@H]2C(=O)N[C@H]3C(=O)N[C@H](C(=O)N[C@H](C(=O)O)c4cc(O)cc(O)c4-c4cc3ccc4O)[C@H](O)c3ccc(c(Cl)c3)Oc3cc2cc(c3O[C@@H]2O[C@H](CO)[C@@H](O)[C@H](O)[C@H]2O[C@H]2C[C@](C)(N)[C@H](O)[C@H](C)O2)Oc2ccc(cc2Cl)[C@H]1O` [vancomycin], the “MIC VRE 700221” value in experiment [2] (BHI, 37 °C, d lowest test concentration) was above 100 µM. Moreover, the MIC in experiment [2] (Enterococcus, ATCC700221|VRE, read-out: MIC VRE 700221) is above 100 µM. In experiment [3], the MBC is 3 µM (≈ 4.35 µg/mL). Turning to `c1ccc(CN(CCN(Cc2ccccn2)Cc2ccccn2)Cc2ccccn2)nc1` [TPEN, N,N,N′,N′-tetrakis(2-pyridinylmethyl)-1,2-ethanediamine], the “upregulation of iron uptake genes” value in experiment [1] was “do not upregulate”.

Regarding `Oc1c(Br)cc(Br)c2nc3ccccc3nc12` [HP 3], in experiment [4], the MIC lay in the range of 1.25 to 2.5 µM (≈ 0.443 to 0.885 µg/mL). On to `CN[C@@H]1[C@H](O[C@H]2[C@H](O[C@H]3[C@H](O)[C@@H](O)[C@H](N=C(N)N)[C@@H](O)[C@@H]3N=C(N)N)O[C@@H](C)[C@]2(O)C=O)O[C@@H](CO)[C@H](O)[C@H]1O` [streptomycin], for which the MIC in experiment [5] was 1.32 µM (≈ 0.768 µg/mL). For the compound `Cc1cccc2nc3c(O)c(Br)c(Cl)c(Br)c3nc12` [HP 29, 2,4-Dibromo-3-chloro-6-methylphenazin-1-ol], the MIC in experiment [4] was 0.06 to 0.12 µM (≈ 0.0241 to 0.0483 µg/mL). Besides, the “selectivity index (SI)” value in experiment [6] is listed as above 2000. Moreover, in experiment [7], the “MICs against all Gram-positive strains in the panel” value is listed as “submicromolar”. Also, the “induction of iron starvation (upregulation of iron uptake genes)” value in experiment [8] was “induce rapid iron starvation; also recorded: rapidly induce iron starvation”. Regarding `Oc1c(Br)c(Cl)c(Br)c2nc3c(Cl)cc(Cl)cc3nc12` [HP 34, 2,4-Dibromo-3,6,8-trichlorophenazin-1-ol], the MIC in experiment [4] was 0.47 to 1.25 µM (≈ 0.215 to 0.572 µg/mL).

`CCSc1c(Br)c(O)c2nc3cccc(C)c3nc2c1Br` [HP 45, 2,4-Dibromo-3-(ethylthio)-6-methylphenazin-1-ol]: the MIC in experiment [4] is 0.31 to 0.63 µM (≈ 0.133 to 0.27 µg/mL).

Broadly, the MIC is the least concentration at which growth counts as inhibited.

The values are drawn from PMC8192493 (Journal of medicinal chemistry, 2021).
